Experimental findings from publication PMC11855230, “Oligoethylene Phosphoramidate‐Based Kinase Inhibitor Prodrugs – Solubility, Enzyme Inhibition, and Hydrolysis” (Chemistry (Weinheim an Der Bergstrasse, Germany), 2025) are described below.

Values after ≈ are worked out from the molar mass of the structure shown. Values joined by “and” are separate entries in the source; they are usually repeats but may differ in a detail not shown here. Equal entries are not always repeated.

T1 sequence (P11802 whole entry): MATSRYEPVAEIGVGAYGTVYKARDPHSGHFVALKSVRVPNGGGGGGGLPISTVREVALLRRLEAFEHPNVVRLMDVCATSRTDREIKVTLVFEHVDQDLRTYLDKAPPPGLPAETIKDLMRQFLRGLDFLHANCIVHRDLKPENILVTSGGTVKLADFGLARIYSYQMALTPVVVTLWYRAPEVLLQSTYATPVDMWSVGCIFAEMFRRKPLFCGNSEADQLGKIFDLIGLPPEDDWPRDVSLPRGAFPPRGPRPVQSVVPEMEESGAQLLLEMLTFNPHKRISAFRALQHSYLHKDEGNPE
T1 sequence (P30281 whole entry partner): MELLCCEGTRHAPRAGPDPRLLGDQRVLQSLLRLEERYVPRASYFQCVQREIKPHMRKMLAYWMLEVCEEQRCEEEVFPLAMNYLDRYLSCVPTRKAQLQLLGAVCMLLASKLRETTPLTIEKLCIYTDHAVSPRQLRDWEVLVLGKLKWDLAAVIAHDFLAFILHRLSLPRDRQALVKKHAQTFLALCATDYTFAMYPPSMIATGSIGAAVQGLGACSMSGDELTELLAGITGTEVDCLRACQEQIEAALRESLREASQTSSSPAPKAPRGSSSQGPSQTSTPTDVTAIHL

One data set concerns the target T1, cyclin‐dependent kinase 4 (CDK4) (Homo sapiens, UniProt P11802).
T1 construct: purchased biomol
Put plainly: CDK4 cell free enzyme (kinase) inhibition assay, luminescence. The data set is classed as biochemical. The following applies: 1 % DMSO, duplicates. The method, then: (§1) Apart from solubility and self‐assembly, we investigate the inhibitory potential against the respectively targeted receptors.
Enzyme Binding Assays (CDK4):[21] […] The instructions are followed with some specifications: DTT (10 μL of 1 M DTT to 1 mL buffer) is added to the buffer solution and the assay is performed with 1 % DMSO in the final reaction volume. Serial dilutions of inhibitor (5 μL) are mixed with 20 μL enzyme (10 ng/μL), 5 μL of 10x CDK4 substrate peptide and 1 μL ATP solution (500 μM) in a 96‐well plate. The blank contains no enzyme and no inhibitor. The positive control contains enzyme but no inhibitor. The receptor inhibitory rate is calculated from the luminescence as IC50. […] Luminescence is recorded on Promega GloMax Navigator Microplate Luminometer. Samples are prepared in duplicates.
One may read the IC50 as the concentration needed to halve the response being measured. Low values mean inhibition by little substance, high ones a need for much substance. The compound `COCCOCCOP(=O)(OCCOCCOC)N1CCN(c2ccc(Nc3ncc4c(C)c(C(C)=O)c(=O)n(C5CCCC5)c4n3)nc2)CC1` [Pal‐OEG2] yielded a concentration for half-maximal inhibition (IC50) of 1000 nM.

In the case of `COCCOCCOCCOP(=O)(OCCOCCOCCOC)N1CCN(c2ccc(Nc3ncc4c(C)c(C(C)=O)c(=O)n(C5CCCC5)c4n3)nc2)CC1` [Pal‐OEG3], the 50% inhibitory concentration (IC50) is 215 to 270 nM and 215 nM.

Consider `COCCOCCOCCOCCOCCOCCOCCOCCOP(=O)(OCCOCCOCCOCCOCCOCCOCCOCCOC)N1CCN(c2ccc(Nc3ncc4c(C)c(C(C)=O)c(=O)n(C5CCCC5)c4n3)nc2)CC1` [Pal‐OEG8], for which the IC50 was 215 to 270 nM and 270 nM.

Take `COCCOCCOP(=O)(OCCOCCOC)N1CCN(c2ccc(Nc3ncc4cc(C(=O)N(C)C)n(C5CCCC5)c4n3)nc2)CC1` [Rib‐OEG2]: the IC50 was 110 nM. In other words, the sub-micromolar range.

On to `COCCOCCOCCOP(=O)(OCCOCCOCCOC)N1CCN(c2ccc(Nc3ncc4cc(C(=O)N(C)C)n(C5CCCC5)c4n3)nc2)CC1` [Rib‐OEG3], for which inhibition was half-maximal at 370 nM (IC50).

Take `COCCOCCOCCOCCOCCOCCOCCOCCOP(=O)(OCCOCCOCCOCCOCCOCCOCCOCCOC)N1CCN(c2ccc(Nc3ncc4cc(C(=O)N(C)C)n(C5CCCC5)c4n3)nc2)CC1` [Rib‐OEG8]: inhibition was half-maximal at 400 nM (IC50).

Test system in a further data set: not listed separately
Put plainly: pH dependent hydrolysis / drug release by HPLC. The class given is physicochemical. The following applies: acetate buffer, pH 3, 37 °C. The text has this: The working principle of a prodrug is to improve solubility and circulation time and not necessarily to improve binding to the target. However, binding should of course become important when the prodrug has arrived at the designated site and the promoiety is cleaved to release the native drug. In case of the phosphoramidate linked OEG chains, release of the native drug is induced by hydrolysis at low pH.[21, 28, 29, 30, 31, 32] The stability of the phosphoramidate linker and therefore its half‐life depends on the chemical surrounding in the molecule.[28, 29] Since we only change distant substituents by varying the binding motif of the respective kinase inhibitor, we expect only minor influence on the rate of hydrolysis. We investigate the samples at pH 3, 4, 5, 6, and 7.4 over a course of 72 h at 37 °C using high pressure liquid chromatography (HPLC) (see Figure S10–13 and Table S1–11). […]
High Performance Liquid Chromatography (HPLC): Drug release is monitored on Agilent 1260 Infinity containing the following modules: G1311B Quat Pump, G1329B ALS, G1365D MWD VL in combination with a Jetstream 2 plus column thermostat. […] Flow rate is set to 0.3 mL/min and absorption is detected at 254 nm. […]
pH Dependent Hydrolysis:[21] […] Drug release percentages are calculated form the ratio of the peak area of drug and drug‐OEG conjugate for 0, 3, 6, 24, 48 and 72 h.
The term half-life denotes the time needed for the level to fall by half in the phase considered. For `COCCOCCOCCOCCOCCOCCOCCOCCOP(=O)(OCCOCCOCCOCCOCCOCCOCCOCCOC)N1CCC(c2cc(OC(C)C)c(Nc3ncc(Cl)c(Nc4ccccc4S(=O)(=O)C(C)C)n3)cc2C)CC1` [Cer‐OEG8], the half-life is 50 h.

The target of another data set is T2, ROS proto‐oncogene 1 (ROS1) (Homo sapiens, UniProt P08922).
T2 construct: purchased biomol
T2 sequence (P08922 28-2347): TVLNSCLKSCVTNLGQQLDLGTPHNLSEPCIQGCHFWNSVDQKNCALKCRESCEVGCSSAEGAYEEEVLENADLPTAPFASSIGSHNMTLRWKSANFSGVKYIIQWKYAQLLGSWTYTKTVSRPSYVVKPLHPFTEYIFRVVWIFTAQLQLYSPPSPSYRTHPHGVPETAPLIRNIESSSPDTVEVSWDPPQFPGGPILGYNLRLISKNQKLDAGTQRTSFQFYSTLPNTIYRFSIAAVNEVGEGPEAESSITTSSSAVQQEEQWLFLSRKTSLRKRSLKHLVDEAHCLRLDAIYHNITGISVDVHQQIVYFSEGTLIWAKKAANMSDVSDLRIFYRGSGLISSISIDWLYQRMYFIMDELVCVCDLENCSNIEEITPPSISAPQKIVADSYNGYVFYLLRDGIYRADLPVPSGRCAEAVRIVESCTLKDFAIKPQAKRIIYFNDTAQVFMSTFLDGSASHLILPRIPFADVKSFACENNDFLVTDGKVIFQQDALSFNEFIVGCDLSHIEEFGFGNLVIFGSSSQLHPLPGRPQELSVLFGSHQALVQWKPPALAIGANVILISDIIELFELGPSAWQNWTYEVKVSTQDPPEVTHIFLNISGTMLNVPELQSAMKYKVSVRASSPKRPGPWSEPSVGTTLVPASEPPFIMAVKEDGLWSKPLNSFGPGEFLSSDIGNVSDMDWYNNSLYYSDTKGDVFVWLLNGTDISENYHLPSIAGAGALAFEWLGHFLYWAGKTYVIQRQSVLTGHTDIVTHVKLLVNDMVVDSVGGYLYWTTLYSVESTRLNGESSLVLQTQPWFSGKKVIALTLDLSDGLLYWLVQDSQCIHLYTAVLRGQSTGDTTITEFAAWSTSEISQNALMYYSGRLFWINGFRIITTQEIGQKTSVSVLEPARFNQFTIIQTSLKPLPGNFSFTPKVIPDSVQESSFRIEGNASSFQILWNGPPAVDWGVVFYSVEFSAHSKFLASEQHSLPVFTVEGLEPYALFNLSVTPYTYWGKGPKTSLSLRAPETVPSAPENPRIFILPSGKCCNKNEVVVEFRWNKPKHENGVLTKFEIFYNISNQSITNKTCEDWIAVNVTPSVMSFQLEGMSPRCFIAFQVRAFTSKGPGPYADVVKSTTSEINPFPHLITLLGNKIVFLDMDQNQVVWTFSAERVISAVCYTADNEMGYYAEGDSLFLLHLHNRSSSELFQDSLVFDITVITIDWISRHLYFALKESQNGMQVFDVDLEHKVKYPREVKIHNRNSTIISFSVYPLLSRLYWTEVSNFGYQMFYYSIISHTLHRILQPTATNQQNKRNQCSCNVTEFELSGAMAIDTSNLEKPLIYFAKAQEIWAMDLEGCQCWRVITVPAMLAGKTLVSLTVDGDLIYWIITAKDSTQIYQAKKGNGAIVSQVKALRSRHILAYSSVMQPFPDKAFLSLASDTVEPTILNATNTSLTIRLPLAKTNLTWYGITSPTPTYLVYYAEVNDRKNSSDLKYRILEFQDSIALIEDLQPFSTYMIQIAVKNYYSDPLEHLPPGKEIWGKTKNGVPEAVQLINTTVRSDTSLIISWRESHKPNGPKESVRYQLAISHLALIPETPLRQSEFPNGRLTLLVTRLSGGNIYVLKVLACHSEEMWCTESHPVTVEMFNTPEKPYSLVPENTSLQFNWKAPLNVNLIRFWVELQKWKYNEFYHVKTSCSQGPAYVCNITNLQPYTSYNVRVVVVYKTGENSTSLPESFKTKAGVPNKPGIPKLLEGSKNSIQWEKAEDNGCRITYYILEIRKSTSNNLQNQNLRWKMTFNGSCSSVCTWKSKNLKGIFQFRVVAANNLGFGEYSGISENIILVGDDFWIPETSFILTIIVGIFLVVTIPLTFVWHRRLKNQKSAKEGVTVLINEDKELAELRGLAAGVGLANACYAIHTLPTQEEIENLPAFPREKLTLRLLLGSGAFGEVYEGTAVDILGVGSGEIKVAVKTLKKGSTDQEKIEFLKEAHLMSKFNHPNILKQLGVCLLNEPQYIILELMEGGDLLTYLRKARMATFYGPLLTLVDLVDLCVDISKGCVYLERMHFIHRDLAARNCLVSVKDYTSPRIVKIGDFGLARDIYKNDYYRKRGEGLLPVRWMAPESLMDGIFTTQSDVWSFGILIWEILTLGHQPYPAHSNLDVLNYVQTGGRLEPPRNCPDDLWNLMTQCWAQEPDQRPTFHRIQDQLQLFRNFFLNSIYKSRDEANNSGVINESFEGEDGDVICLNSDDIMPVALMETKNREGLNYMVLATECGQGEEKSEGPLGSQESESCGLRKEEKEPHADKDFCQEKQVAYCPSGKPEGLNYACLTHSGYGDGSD
Briefly: ROS1 cell free enzyme (kinase) inhibition assay, luminescence. The data set is classed as biochemical. The following applies: 1 % DMSO, duplicates. How it is done:
as §1
Enzyme Binding Studies (ROS1):[21] ROS1 assays are performed with the following substances: Cer‐OEG2 , Cer‐OEG3 , Cer‐OEG8 , Cri‐OEG2 , Cri‐OEG3 and Cri‐OEG8 . The instructions are followed with some specifications: DTT (10 μL of 1 M DTT to 1 mL buffer) is added to the buffer solution and the assay is performed with 1 % DMSO in the final reaction volume. Serial dilutions of inhibitor (5 μL) are mixed with 20 μL enzyme (5 ng/μL), 5 μL of IGF‐1Rtide (1 mg/mL) and 1 μL ATP solution (500 μM) in a 96‐well plate. The blank contains no enzyme and no inhibitor. The positive control contains enzyme but no inhibitor. The receptor inhibitory rate is calculated from the luminescence as IC50. […] Luminescence is recorded on Promega GloMax Navigator Microplate Luminometer. Samples are prepared in duplicates.
Consider `COCCOCCOP(=O)(OCCOCCOC)N1CCC(c2cc(OC(C)C)c(Nc3ncc(Cl)c(Nc4ccccc4S(=O)(=O)C(C)C)n3)cc2C)CC1` [Cer‐OEG2], for which the IC50 was determined as 100 nM.

`COCCOCCOCCOCCOCCOCCOCCOCCOP(=O)(OCCOCCOCCOCCOCCOCCOCCOCCOC)N1CCC(c2cc(OC(C)C)c(Nc3ncc(Cl)c(Nc4ccccc4S(=O)(=O)C(C)C)n3)cc2C)CC1` [Cer‐OEG8] came in with a half-inhibitory concentration (IC50) of 100 nM.

Test system in the next data set: not listed separately
Briefly: Solubility limit in water (kinetic solubility) by UV/Vis optical density at 600 nm. Conditions: kinetic from dmso stock, absorption at 600 nm, read-out: c sol (water), solubility limit in water. The class given is physicochemical. The text has this: With all purified compounds in hand, we start to analyze the different properties of the conjugates and discuss the influence of the OEG‐chain lengths. We determine the solubility in water with UV/Vis spectroscopy by measuring the optical density at 600 nm. The absorption (A) is plotted against varying concentration (c) of the drug conjugates (see Figure S1). In the range, in which the drug and their conjugates are still soluble, A can be fitted linearly. When the solubility limit is reached, the drug crashes out of solution leading to scattering and reduced transmission manifesting a threshold, upon which the increase in absorption is fitted with a second line of higher slope. The intersection between the two linear fits gives the critical concentration for the kinetic solubility c sol. Detailed solubility plots can be found in the supporting information (see Figure S1). In our previous study with n=4, the solubility of all three kinase inhibitor prodrugs in water is improved over the native drug. However, the extent of improvement varies between the different kinase inhibitor prodrugs. For a better overview, we have included the performance of our previous study (see Figure 2).[21] […] We observe an improvement of solubility upon conjugation with all of our different OEG‐phosphates.
UV‐Vis Spectroscopy: Changes in solubility are measured with a Lambda 365 spectrometer by PerkinElmer supplied with UV WinLab software. Samples are prepared in water and placed in a 1 cm quartz cuvette.
The term solubility denotes how much of the substance goes into solution per volume. `COCCOCCOCCOCCOCCOCCOCCOCCOP(=O)(OCCOCCOCCOCCOCCOCCOCCOCCOC)N1CCC(c2cc(OC(C)C)c(Nc3ncc(Cl)c(Nc4ccccc4S(=O)(=O)C(C)C)n3)cc2C)CC1` [Cer‐OEG8]: the solubility was 1.75 mM (≈ 2400 µg/mL).

Regarding `COCCOCCOCCOP(=O)(OCCOCCOCCOC)N1CCN(c2ccc(Nc3ncc4c(C)c(C(C)=O)c(=O)n(C5CCCC5)c4n3)nc2)CC1` [Pal‐OEG3], the solubility was found to be 8.71 mM (≈ 7140 µg/mL).

In the case of `COCCOCCOCCOCCOCCOCCOCCOCCOP(=O)(OCCOCCOCCOCCOCCOCCOCCOCCOC)N1CCN(c2ccc(Nc3ncc4c(C)c(C(C)=O)c(=O)n(C5CCCC5)c4n3)nc2)CC1` [Pal‐OEG8], the solubility was at most 3.16 mM.

Turning to `COCCOCCOP(=O)(OCCOCCOC)N1CCN(c2ccc(Nc3ncc4cc(C(=O)N(C)C)n(C5CCCC5)c4n3)nc2)CC1` [Rib‐OEG2], the solubility turned out to be 12.3 mM (≈ 8840 µg/mL).

Take `COCCOCCOCCOP(=O)(OCCOCCOCCOC)N1CCN(c2ccc(Nc3ncc4cc(C(=O)N(C)C)n(C5CCCC5)c4n3)nc2)CC1` [Rib‐OEG3]: the solubility is 13.5 mM (≈ 10900 µg/mL).

Consider `COCCOCCOCCOCCOCCOCCOCCOCCOP(=O)(OCCOCCOCCOCCOCCOCCOCCOCCOC)N1CCN(c2ccc(Nc3ncc4cc(C(=O)N(C)C)n(C5CCCC5)c4n3)nc2)CC1` [Rib‐OEG8], for which the solubility worked out at 1.52 mM (≈ 1900 µg/mL).

Test system in another data set: not listed separately
Briefly: Dynamic light scattering (DLS) of drug‐conjugates in water. The data set is classed as physicochemical. Conditions: DLS in water at critical solution concentration c sol, 25 °C. How it is done:
To study, whether self‐assembly into micelles might have an effect on the solubility limit of the prodrugs, we perform dynamic light scattering (DLS) of the drug‐conjugates in water. […] Micelles below 6 nm (Cer‐OEG8 , Cri‐OEG3 , Cri‐OEG8 , Pal‐OEG3 , Rib‐OEG2 , and Rib‐OEG3 ) are potentially affected by renal clearance.
Dynamic Light Scattering (DLS): Possible self‐assemblies are investigated with DLS Nano‐Zetasizer (Malvern Instruments) at 25 °C with a scattering angle of 173° at λ=633 nm.
Consider `COCCOCCOCCOCCOCCOCCOCCOCCOP(=O)(OCCOCCOCCOCCOCCOCCOCCOCCOC)N1CCN(c2ccc(Nc3ncc4c(C)c(C(C)=O)c(=O)n(C5CCCC5)c4n3)nc2)CC1` [Pal‐OEG8], for which the hydrodynamic diameter d turned out to be 596 nm.

`COCCOCCOCCOCCOCCOCCOCCOCCOP(=O)(OCCOCCOCCOCCOCCOCCOCCOCCOC)N1CCN(c2ccc(Nc3ncc4cc(C(=O)N(C)C)n(C5CCCC5)c4n3)nc2)CC1` [Rib‐OEG8]: the hydrodynamic diameter d amounted to 64 nm.

Staying with this data set, now noted: DLS in water, at the concentration given per compound (Figures S2–S5).
`COCCOCCOP(=O)(OCCOCCOC)N1CCC(c2cc(OC(C)C)c(Nc3ncc(Cl)c(Nc4ccccc4S(=O)(=O)C(C)C)n3)cc2C)CC1` [Cer‐OEG2] yielded a PDI of 0.46 and a hydrodynamic diameter of 565 nm.

On to `COCCOCCOCCOCCOCCOCCOCCOCCOP(=O)(OCCOCCOCCOCCOCCOCCOCCOCCOC)N1CCC(c2cc(OC(C)C)c(Nc3ncc(Cl)c(Nc4ccccc4S(=O)(=O)C(C)C)n3)cc2C)CC1` [Cer‐OEG8], for which the PDI was determined as 0.25 and the hydrodynamic diameter is given as 4.9 nm.

Turning to `COCCOCCOP(=O)(OCCOCCOC)N1CCN(c2ccc(Nc3ncc4c(C)c(C(C)=O)c(=O)n(C5CCCC5)c4n3)nc2)CC1` [Pal‐OEG2], the PDI was 0.17 and the hydrodynamic diameter is recorded as 264 nm.

For the compound `COCCOCCOCCOP(=O)(OCCOCCOCCOC)N1CCN(c2ccc(Nc3ncc4c(C)c(C(C)=O)c(=O)n(C5CCCC5)c4n3)nc2)CC1` [Pal‐OEG3], the PDI was 0.74 and the hydrodynamic diameter was 5 nm.

In turn, `COCCOCCOCCOCCOCCOCCOCCOCCOP(=O)(OCCOCCOCCOCCOCCOCCOCCOCCOC)N1CCN(c2ccc(Nc3ncc4c(C)c(C(C)=O)c(=O)n(C5CCCC5)c4n3)nc2)CC1` [Pal‐OEG8] registered a PDI of 0.33 and a hydrodynamic diameter of 596 nm.

As for `COCCOCCOP(=O)(OCCOCCOC)N1CCN(c2ccc(Nc3ncc4cc(C(=O)N(C)C)n(C5CCCC5)c4n3)nc2)CC1` [Rib‐OEG2], the PDI is 0.22 and the hydrodynamic diameter was 2.5 nm.

As to `COCCOCCOCCOP(=O)(OCCOCCOCCOC)N1CCN(c2ccc(Nc3ncc4cc(C(=O)N(C)C)n(C5CCCC5)c4n3)nc2)CC1` [Rib‐OEG3], the PDI is on record as 0.15 and the hydrodynamic diameter is 1.8 nm.

In turn, `COCCOCCOCCOCCOCCOCCOCCOCCOP(=O)(OCCOCCOCCOCCOCCOCCOCCOCCOC)N1CCN(c2ccc(Nc3ncc4cc(C(=O)N(C)C)n(C5CCCC5)c4n3)nc2)CC1` [Rib‐OEG8] showed a PDI of 0.22 and a hydrodynamic diameter of 64 nm.
